Assay results published in paper PMC6435255 (Nature chemistry, 2018).

How the values were obtained:
hENT1 [1] = target: T1, hENT1 (Homo sapiens, UniProt Q99808); assay: Affinity pulldown with biotinylated rapadocin, red blood cell membrane extract; type: binding; conditions: competitor
T1 sequence (Q99808 1-456): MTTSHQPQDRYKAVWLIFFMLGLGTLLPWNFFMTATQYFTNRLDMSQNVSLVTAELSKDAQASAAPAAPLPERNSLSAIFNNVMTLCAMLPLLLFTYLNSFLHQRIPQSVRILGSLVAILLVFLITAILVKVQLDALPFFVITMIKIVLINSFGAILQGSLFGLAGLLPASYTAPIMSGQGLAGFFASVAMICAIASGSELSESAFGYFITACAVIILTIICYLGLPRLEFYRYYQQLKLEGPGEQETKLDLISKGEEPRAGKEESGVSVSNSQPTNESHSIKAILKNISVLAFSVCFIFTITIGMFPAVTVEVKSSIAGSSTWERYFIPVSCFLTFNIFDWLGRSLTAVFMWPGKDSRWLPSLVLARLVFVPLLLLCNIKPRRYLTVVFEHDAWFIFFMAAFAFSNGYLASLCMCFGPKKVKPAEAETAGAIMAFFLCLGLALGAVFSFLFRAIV

hENT1 [2] = target: hENT1 (Homo sapiens, UniProt P62942+Q99808); assay: GST-FKBP12 affinity pulldown, red blood cell membrane extract; type: binding; conditions: competitor
Chain of hENT1 (Homo sapiens, UniProt P62942+Q99808) (P62942 whole entry, one chain of several): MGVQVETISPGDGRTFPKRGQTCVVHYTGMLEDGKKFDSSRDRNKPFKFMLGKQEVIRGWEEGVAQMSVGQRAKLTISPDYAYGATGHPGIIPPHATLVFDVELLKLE

HUVEC = assay: Adenosine; type: cell-based, human
hENT1 [3] = target: T1, hENT1; type: cell-based; conditions: PK15-ENT1 cells, combined with rapadocin
[4] = tested on: Id1-Luc luciferase reporter; assay: BMP reporter gene assay; type: cell-based, human; conditions: Jurkat T cells, 10 µM, 18 h

Row | SMILES | competition of hENT1 binding of the biotin-rapadocin probe (hENT1 [1]) | competition of GST-FKBP12-rapadocin association with hENT1 (hENT1 [2]) | IC50, nucleoside uptake (HUVEC) | antagonism of rapadocin inhibition of hENT1-mediated thymidine uptake (hENT1 [3]) | activation of the Id1-Luc reporter gene [4]
1 | C=CC[C@@H]1/C=C(\C)C[C@H](C)C[C@H](OC)[C@H]2O[C@@](O)(C(=O)C(=O)N3CCCC[C@H]3C(=O)O[C@H](/C(C)=C/[C@@H]3CC[C@@H](O)[C@H](OC)C3)[C@H](C)[C@@H](O)CC1=O)[C@H](C)C[C@@H]2OC [FK506] | not appreciably | sensitive to competition | low micromolar range | antagonize | activated the Id1-Luc reporter gene
2 | CO[C@H]1C[C@@H]2CC[C@@H](C)[C@@](O)(O2)C(=O)C(=O)N2CCCC[C@H]2C(=O)O[C@H]([C@H](C)C[C@@H]2CC[C@@H](O)[C@H](OC)C2)CC(=O)[C@H](C)/C=C(\C)[C@@H](O)[C@@H](OC)C(=O)[C@H](C)C[C@H](C)/C=C/C=C/C=C/1C [rapamycin] | not appreciably | sensitive to competition | low micromolar range | antagonize | activated the Id1-Luc reporter gene
3 | COc1ccc(-c2ccc3c(N4CCOC[C@@H]4C)nc(N4CCOC[C@@H]4C)nc3n2)cc1CO [AZD8055] |  |  |  | did not antagonize | 
